{
  "source": "patent US20170055533A1",
  "about": "“AROMATIC PHOSPHATE ESTERS AS AGROCHEMICAL FORMULATION COMPONENT” (priority 2011, published 2017)",
  "assay_type_in_all_cases": "in vivo",
  "key": {"[1]": {"system": "Tetranychus urticae", "assay": "Mortality of two spotted spider mite on French bean plants, abamectin with and without phosphate ester", "conditions": "for mortality of Tetranychus urticae, phosphate ester composition without abamectin: 0.14% v/v phosphate ester, no abamectin present; for % mortality of Tetranychus urticae: phosphate ester 0.14% v/v, 10 days, larva and adults averaged, lower side of leaves", "experimental": "The efficacy of the aromatic phosphate ester Phosflex® 362 (2-ethylhexyl diphenyl phosphate) as an adjuvant in a composition containing abamectin was tested and compared to the efficacy of an abamectin composition without the Phosflex® 362 present, and to the efficacy of an abamectin composition containing triethyl phosphate. The Phosflex® 362 and the triethyl phosphate were present at 0.14% v/v in the abamectin compositions. The surfactants tristyrylphenol ethoxylate phosphate ester, sodium salt and tristyrylphenol ethoxylate were present in all the abamectin compositions tested.\nTwo week old French bean (Phaseolus vulgaris) plants were infested with a mixed population of two spotted spider mite Tetranychus urticae. One day after infestation the plants were treated with the test compositions, with a track sprayer from the top with a rate of 200 litres per hectare. Plants were incubated in the greenhouse for 10 days and the evaluation was done on mortality against Larva and Adults, just on the lower side (untreated) of the leaves. Each experiment was replicated twice and the results were averaged. The mortality against Larva and Adults was then averaged."}, "[2]": {"system": "Septoria tritici", "assay": "Septoria tritici on wheat plants, cyproconazole with and without phosphate ester adjuvants", "conditions": "conclusion from Table 2"}, "[3]": {"system": "Septoria tritici", "conditions": "conclusion from Table 1"}, "[4]": {"system": "Chenopodium album (CHEAL), Abutilon theophrasti (ABUTH), Setaria viridis (SETVI) and Digitaria sanguinalis (DIGSA)", "assay": "Glasshouse weed kill test, nicosulfuron with and without adjuvants", "conditions": "conclusion from Table 3", "experimental": "The efficacy of the aromatic phosphate esters tricresyl phosphate, Phosflex® 362 (2-ethylhexyl diphenyl phosphate) and triphenyl phosphate were tested in a glasshouse against four weed species using the herbicide nicosulfuron. An agrochemical composition was prepared containing 0.5% v/v of the adjuvant Atplus® 411 F in a track sprayer, and was applied at a volume of 200 litres per hectare. The other adjuvants were tested at a arte of 0.2% v/v. Nicosulfuron was applied at a rate of either 30 or 60 grams of pesticide per hectare to weeds which had been grown to the 1.3 or 1.4 leaf stage. The weed species were Chenopodium album (CHEAL), Abutilon theophrasti (ABUTH), Setaria viridis (SETVI) and Digitaria sanguinalis (DIGSA).\nEach spray test was replicated three times. The efficacy of the herbicide was assessed visually and expressed as a percentage of the leaf area killed. Samples were assessed at time periods of 14 and 21 days following application. The results shown in Table 3 below are mean averages over the two rates of nicosulfuron, three replicates, four weed species and the two assessment timings, and are compared to the efficacy of nicosulfuron in the absence of adjuvant and nicosulfuron in the presence of the known tank mix adjuvant Atplus® 411F."}},
  "note": "Entries after “also recorded” stand apart in the source; their conditions may differ.",
  "data": [
    {"compound": "CCOP(=O)(OCC)OCC", "note": "[triethyl phosphate]", "values": [
      {"measurement": "mortality of Tetranychus urticae, phosphate ester composition without abamectin", "setting": "[1]", "result": "no mortality was observed"}
    ]},
    {"compound": "CCCCC(CC)COP(=O)(Oc1ccccc1)Oc1ccccc1", "note": "(stereo not shown) [Phosflex® 362, 2-ethylhexyldiphenyl phosphate]", "values": [
      {"measurement": "efficacy as adjuvant for cyproconazole (in words)", "setting": "[2]", "result": "performed best as an adjuvant out of the compounds tested"},
      {"measurement": "efficacy as adjuvant for isopyrazam (in words)", "setting": "[3]", "result": "more efficacious as an adjuvant than any of the other compounds tested"},
      {"measurement": "efficacy as adjuvant for nicosulfuron (in words)", "setting": "[4]", "result": "performing particularly well"},
      {"measurement": "mortality of Tetranychus urticae, phosphate ester composition without abamectin", "setting": "[1]", "result": "no mortality was observed"},
      {"measurement": "efficacy as adjuvant for abamectin (in words)", "setting": "[1]; conclusion from Table 7", "result": "more effective control of Tetranychus urticae than the treatment containing abamectin with no adjuvant present; also recorded: considerably more effective than the alkyl phosphate ester triethyl phosphate"}
    ]},
    {"compound": "abamectin", "values": [
      {"measurement": "% mortality of Tetranychus urticae", "setting": "[1]; 0.8 ppm abamectin", "result": 0, "unit": "%"},
      {"measurement": "% mortality of Tetranychus urticae", "setting": "[1]; 3 ppm abamectin", "result": 20, "unit": "%"},
      {"measurement": "% mortality of Tetranychus urticae", "setting": "[1]; 12.5 ppm abamectin", "result": 50, "unit": "%"}
    ]},
    {"compound": "tricresyl phosphate [tricresylphosphate, reference compound]", "values": [
      {"measurement": "efficacy as adjuvant for nicosulfuron (in words)", "setting": "[4]", "result": "performing particularly well"}
    ]}
  ]
}
